One test addresses Genome polyprotein (dengue virus type 2, UniProt P29990). In words: flavivirus cap methylation enzyme inhibition – biochemical, confirmation dose response, primary screen (AID 588689). It counts as functional.
In test [1] the target is T1, Replicative DNA helicase DnaB (Mycobacterium tuberculosis, UniProt P9WMR3).
T1 sequence (P9WMR3 whole entry): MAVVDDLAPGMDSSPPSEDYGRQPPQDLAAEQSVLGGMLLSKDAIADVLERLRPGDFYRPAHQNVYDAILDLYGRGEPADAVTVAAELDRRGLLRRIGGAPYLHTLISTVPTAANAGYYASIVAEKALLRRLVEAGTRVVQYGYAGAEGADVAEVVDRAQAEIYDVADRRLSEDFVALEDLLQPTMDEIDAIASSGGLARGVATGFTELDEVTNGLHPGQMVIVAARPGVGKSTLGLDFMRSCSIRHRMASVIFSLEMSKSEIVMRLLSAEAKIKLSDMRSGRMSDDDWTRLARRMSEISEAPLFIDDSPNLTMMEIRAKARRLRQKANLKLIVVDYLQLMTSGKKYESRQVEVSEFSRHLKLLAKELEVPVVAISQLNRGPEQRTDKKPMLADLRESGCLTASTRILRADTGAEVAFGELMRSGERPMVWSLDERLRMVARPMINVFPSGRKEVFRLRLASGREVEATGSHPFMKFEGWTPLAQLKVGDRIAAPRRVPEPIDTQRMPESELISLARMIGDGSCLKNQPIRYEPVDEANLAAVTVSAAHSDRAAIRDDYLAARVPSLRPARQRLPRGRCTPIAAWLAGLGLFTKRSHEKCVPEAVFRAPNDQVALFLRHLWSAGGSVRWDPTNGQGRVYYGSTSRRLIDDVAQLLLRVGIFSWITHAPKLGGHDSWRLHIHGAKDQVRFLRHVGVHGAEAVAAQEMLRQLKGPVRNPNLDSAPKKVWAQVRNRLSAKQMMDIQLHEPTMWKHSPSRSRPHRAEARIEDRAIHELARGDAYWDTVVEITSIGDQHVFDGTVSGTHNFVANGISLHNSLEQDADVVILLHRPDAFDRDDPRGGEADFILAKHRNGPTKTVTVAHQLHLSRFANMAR
Description: DnaB intein splicing inhibitors, dose response, biochemical, cell-free fluorescence (AID 449749). Type of test: functional.

The target of the next test is T2, Protein RecA (Mycobacterium tuberculosis, UniProt P9WHJ3).
T2 sequence (P9WHJ3 whole entry): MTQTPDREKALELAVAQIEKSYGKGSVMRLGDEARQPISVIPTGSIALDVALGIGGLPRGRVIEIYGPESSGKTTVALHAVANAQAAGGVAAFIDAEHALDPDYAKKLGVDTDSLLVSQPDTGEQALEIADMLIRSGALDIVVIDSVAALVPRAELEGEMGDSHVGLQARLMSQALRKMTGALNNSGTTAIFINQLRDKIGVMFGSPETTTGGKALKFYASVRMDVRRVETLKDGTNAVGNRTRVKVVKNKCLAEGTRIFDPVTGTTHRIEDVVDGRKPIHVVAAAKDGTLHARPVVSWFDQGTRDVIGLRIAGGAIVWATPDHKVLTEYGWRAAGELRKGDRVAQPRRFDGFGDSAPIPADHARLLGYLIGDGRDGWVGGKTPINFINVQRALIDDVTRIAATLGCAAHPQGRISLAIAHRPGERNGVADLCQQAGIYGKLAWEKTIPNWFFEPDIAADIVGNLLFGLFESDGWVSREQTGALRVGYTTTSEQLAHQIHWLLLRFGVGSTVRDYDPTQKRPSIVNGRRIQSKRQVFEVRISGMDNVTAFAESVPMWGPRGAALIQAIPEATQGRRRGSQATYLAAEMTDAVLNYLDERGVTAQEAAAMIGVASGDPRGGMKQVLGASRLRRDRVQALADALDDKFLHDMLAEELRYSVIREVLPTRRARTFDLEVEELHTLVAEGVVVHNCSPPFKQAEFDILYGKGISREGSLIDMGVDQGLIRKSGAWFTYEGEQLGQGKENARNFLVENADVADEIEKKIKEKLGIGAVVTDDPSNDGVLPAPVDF
Description: Fluorescence Cell-Free Homogeneous Dose Retest to Identify Inhibitors of RecA-Intein Splicing Activity. [Related pubchem assays (depositor defined):AID2097, AID2223, AID489010, AID492950]. Type of test: functional.

Test [2] in a line: alpha-synuclein stem-loop luciferase translation blockers – H4 neuroglioma cells, luminescence, confirmation (AID 1988). Type of test: functional, cell-based.
Test [3] in a line: luciferase reporter signal suppression in cells – H4 neuroglioma cells, luminescence, dose response (AID 1990). It counts as functional, cell-based. Background: Reporter assays use an easily measured gene product as a stand-in for the process of interest.
A short description of test [4]: Luminescence Cell-Based Dose Response HTS to Identify Inhibitors of 5'UTR Stem-Loop Driven Prion Protein mRNA Translation in H4 Neuroglioblastoma Cells. [Related pubchem assays: 1827 (Project Summary), 1813 (Primary HTS)]. Type of test: functional.
Test [5] in a line: loss of viability in HepG2 cells – cell-based, CellTiter-Glo, cherry-picked, cytotoxicity control for Shn3 inhibitor project, dose response (AID 624134). Type of test: functional. For orientation: Cellular ATP, detected with luciferase, serves as a proxy for viable cell number.
The nature of test [6]: non-specific 3'UTR reporter inhibition in Clone20-Shn3RL – cell-based, Renilla luciferase, cherry-picked, counter-screen for Shn3 inhibitor project, dose response (AID 624133). Type of test: functional.
Test [7] can be described thus: reduction of Shn3 3'UTR-driven luciferase in osteoblasts – cell-based, Clone20 osteoblasts, firefly luciferase, cherry-picked, dose response (AID 624132).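 Further: firefly luciferase luminescence from reporter carrying the Shn3 3'UTR in osteoblasts.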 It counts as functional.
Test [8] deals with Streptococcus sp. 'group A'. Description: Streptococcus pyogenes SK(-)GAS viability under kanamycin – luminescence, BacTiterGlo, confirmation, counter-screen for streptokinase expression inhibitor project, dose response (AID 1900). It counts as functional, organism-based. On the technique in general: A counterscreen serves to expose hits that act by an unwanted route or on another target.

A further test concerns Streptococcus. In words: GAS UMAA2166 growth inhibition – luminescence, BacTiterGlo, counter-screen for streptokinase expression inhibitor project, dose response (AID 1915).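 Further: potency for reduction of bacterial viability or growth.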 Type of test: functional, organism-based.
The target of test [9] is T3, High affinity choline transporter 1 (Homo sapiens, UniProt Q9GZV3).
T3 sequence (Q9GZV3 whole entry): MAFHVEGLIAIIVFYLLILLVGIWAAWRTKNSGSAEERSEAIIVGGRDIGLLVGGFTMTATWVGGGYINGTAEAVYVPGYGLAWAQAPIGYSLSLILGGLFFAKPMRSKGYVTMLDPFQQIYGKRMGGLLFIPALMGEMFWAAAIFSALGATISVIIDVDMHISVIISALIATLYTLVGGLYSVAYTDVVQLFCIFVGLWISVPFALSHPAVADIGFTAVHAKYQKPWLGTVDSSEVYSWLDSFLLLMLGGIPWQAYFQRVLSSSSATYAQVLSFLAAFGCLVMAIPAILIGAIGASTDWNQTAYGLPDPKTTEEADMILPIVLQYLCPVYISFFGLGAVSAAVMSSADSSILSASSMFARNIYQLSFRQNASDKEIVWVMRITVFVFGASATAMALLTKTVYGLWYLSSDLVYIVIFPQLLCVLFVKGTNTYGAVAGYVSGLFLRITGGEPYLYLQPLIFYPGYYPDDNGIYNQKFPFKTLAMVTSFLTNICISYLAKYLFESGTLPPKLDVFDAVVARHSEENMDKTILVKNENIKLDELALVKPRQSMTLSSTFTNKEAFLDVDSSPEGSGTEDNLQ
In words: human choline transporter blockers, potency – cell-based, 5-point CRC, membrane potential dye, dose response (AID 504840). It counts as functional.

The next test is described as follows: cells. Type of test: functional.
The nature of test [10]: Trypanosoma cruzi growth suppression in host cells – NIH3T3 host cells, beta-gal luminescence, confirmation (AID 2044).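 Further: intracellular parasites grown in NIH/3T3 mouse fibroblasts as host cells; luminescent beta-galactosidase reporter signal from transgenic T. cruzi replicating inside host cells; inhibitors lower the luminescence signal.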 It counts as functional, cell-based.
Test [11] in a line: NIH3T3 cell viability loss – ATP luminescence, mouse fibroblasts, counter-screen, dose response (AID 2010).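 Further: cells exposed to compound for about 90 hours before reading.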 It counts as functional, cell-based.
For test [12], the target named is Luciferin 4-monooxygenase (Photinus pyralis, UniProt P08659). Description: inhibition of purified Photinus pyralis luciferase – biochemical, luminescence, dose response (AID 1891).
Test [13] is described as follows: Luminescence Cell-Based Dose Confirmation HTS to Identify Inhibitors of Platelet Dense Granule Release. [Related pubchem assays: 1663 (Primary HTS), 1678 (Summary of Project)]. It counts as functional.

Structures are written as SMILES. Activity calls are given as the source filed them. For most assays here, no stated cut-off is given here; in the data, actives have a measured EC50 and inactives only a lower limit.

What is called IC50 is the point on the concentration scale where inhibition reaches its midpoint. Broadly, the AC50 is the concentration at which the activity in the assay is half-maximal. The term EC50 denotes the midpoint of the concentration-response curve.

Sequence of Genome polyprotein (P29990 2492-3391 limits assumed): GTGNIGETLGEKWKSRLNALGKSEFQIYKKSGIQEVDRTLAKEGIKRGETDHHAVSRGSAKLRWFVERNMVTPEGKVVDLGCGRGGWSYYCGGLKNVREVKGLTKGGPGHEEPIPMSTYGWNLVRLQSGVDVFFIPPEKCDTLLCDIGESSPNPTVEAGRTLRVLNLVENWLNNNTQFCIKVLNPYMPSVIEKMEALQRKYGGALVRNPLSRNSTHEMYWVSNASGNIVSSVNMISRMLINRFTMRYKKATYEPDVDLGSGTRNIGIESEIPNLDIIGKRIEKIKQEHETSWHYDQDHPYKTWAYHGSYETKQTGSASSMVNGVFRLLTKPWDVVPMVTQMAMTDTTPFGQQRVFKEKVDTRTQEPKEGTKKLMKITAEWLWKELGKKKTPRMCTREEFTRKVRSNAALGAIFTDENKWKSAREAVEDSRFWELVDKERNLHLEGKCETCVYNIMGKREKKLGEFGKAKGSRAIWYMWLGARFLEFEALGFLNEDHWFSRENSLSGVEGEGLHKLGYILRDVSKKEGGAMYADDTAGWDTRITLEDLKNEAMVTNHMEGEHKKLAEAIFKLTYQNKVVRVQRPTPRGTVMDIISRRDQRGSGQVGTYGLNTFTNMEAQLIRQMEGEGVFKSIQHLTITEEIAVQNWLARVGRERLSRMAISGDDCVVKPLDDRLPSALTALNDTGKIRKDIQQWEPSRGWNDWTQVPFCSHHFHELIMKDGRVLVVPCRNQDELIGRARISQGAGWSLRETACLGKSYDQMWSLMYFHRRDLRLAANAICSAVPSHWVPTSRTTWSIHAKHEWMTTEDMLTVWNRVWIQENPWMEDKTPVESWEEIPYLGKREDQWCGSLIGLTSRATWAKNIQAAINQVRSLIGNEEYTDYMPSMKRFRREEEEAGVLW
Sequence of Luciferin 4-monooxygenase (P08659 whole entry): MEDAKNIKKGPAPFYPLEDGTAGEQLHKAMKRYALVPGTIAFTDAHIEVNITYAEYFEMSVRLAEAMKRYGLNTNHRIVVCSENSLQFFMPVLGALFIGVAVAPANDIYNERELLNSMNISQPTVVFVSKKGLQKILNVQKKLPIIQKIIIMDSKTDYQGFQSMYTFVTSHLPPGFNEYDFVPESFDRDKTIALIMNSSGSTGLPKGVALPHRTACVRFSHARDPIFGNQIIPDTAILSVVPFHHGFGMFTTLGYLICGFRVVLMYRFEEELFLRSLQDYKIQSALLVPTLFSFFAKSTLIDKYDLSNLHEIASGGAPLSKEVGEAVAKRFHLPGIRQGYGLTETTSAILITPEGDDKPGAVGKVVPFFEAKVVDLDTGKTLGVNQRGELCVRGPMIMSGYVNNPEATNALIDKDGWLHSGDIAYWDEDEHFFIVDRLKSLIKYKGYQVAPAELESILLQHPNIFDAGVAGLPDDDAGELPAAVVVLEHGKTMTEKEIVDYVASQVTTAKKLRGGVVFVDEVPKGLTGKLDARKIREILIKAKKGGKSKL

As for `O=C1NC(=O)C(=Cc2cc3c(cc2[N+](=O)[O-])OCO3)C(=O)N1`, the IC50 at Genome polyprotein was 21.4 µM (active). For the same compound, in [1], the AC50 is > 380 µM (inactive). The 50% effective concentration (EC50) on Protein RecA is > 380 µM (inconclusive).

For `CC(C)c1nnc(NC(=O)CC(=O)Nc2ccccc2C(=O)O)s1`, the EC50 in test [2] was 11.3 µM (active); in [3], 16.3 µM (active); in test [4], 14.6 µM (active).

Turning to `Cc1ccccc1-n1nc2c(c1NC(=O)C1CCCC1)CS(=O)(=O)C2`, the concentration giving a half-maximal response (EC50) in test [2], in test [3] and in [4] was > 120 µM (not active) in each case.

On to `Nc1nonc1C(=O)NCCNCc1cc(Br)ccc1OCc1ccc(F)cc1`, for which the AC50 in test [5] is 38.6 µM (active); in test [6], 8.32 µM (active); in test [7], 3.74 µM (active).

Take `CC1=NN(C(N)=S)C(=O)C1N=Nc1c(Br)cc(Br)cc1Br` (configuration not stated): the values for the concentration giving a half-maximal response (EC50) (in test [8]; with Streptococcus) were 2.76 µM (active) and 8.6 µM (active), respectively. The IC50 was 43.5 µM (active) on Genome polyprotein and 12 µM (active) in [9].

With `CC1=NN(C(=O)c2ccccc2F)C(O)(c2ccc(Cl)cc2)C1` (configuration not stated), the IC50 in “cells” was > 50 µM (active).

Turning to `O=C(C/C=N\OCc1ccc([N+](=O)[O-])cc1)Nc1ccc(F)cc1F`, the IC50 in the test “cells” is 33 µM (active).

For the compound `Cc1ccc(OC(=O)CCS(=O)(=O)c2ccc(C)cc2)cc1`, the half-inhibitory concentration (IC50) in the test “cells” is < 0.1 µM (active).

As to `CC#CC(=O)N1CCC(CCc2ccccc2)(C(=O)OCC)CC1`, the EC50 in [4] is > 120 µM (not active).

Take `Cc1c(C(=O)Nc2ccc(S(=O)(=O)NCC3CCCO3)cc2)cccc1[N+](=O)[O-]` (configuration not stated): the half-maximal inhibitory concentration (IC50) in test [9] is 14.5 µM (active).

As for `CCOC(=O)c1ccc(NC(=O)CSc2nnc(-c3cccs3)n2CC)cc1`, the concentration giving a half-maximal response (EC50) in test [2], in test [3] and in test [4] was > 120 µM (not active) throughout.

Turning to `Clc1ccc(C[n+]2cc(-c3ccccc3)n3c2CCCCC3)c(Cl)c1`, the concentration giving a half-maximal response (EC50) in test [10] was 0.273 µM (active); in test [11], 15.3 µM (active). In addition, the AC50 is > 70 µM (inactive) in [5], 1.21 µM (active) in [6] and 1.2 µM (active) in test [7].

Regarding `COC(=O)c1sccc1NC(=O)C1CC2CCC1C2` (configuration not stated), the EC50 in [2], in [3] and in [4] was > 120 µM (not active) throughout.

As to `CCC(=O)c1ccc(OCc2ccc(C(=O)OC)cc2)cc1`, the half-maximal inhibitory concentration (IC50) in “cells” is 38.8 µM (active).

Take `Cc1ccc(-c2cc(-c3ccc(F)cc3)nc(N)c2C#N)o1`: the EC50 is 49.7 µM (active) in test [2], 17.1 µM (active) in test [3] and > 120 µM (not active) in [4].

Consider `CCCCCn1c(=O)c(C(=O)OCC)c(Cl)c2ccccc21`, for which the IC50 in [9] is 19.1 µM (active).

In the case of `c1ccc(Sc2ccccc2CN2CCCC2)cc1`, the EC50 in test [2], in test [3] and in [4] was > 120 µM (not active) each time.

Consider `O=C(NCCC1=CCCCC1)C1CCC(CNc2nc(S)nc3ccccc23)CC1` (configuration not stated), for which the figures for the EC50 in test [2], in [3] and in test [4] were > 120 µM (not active), 9.48 µM (active) and > 120 µM (not active), respectively.

With `CC(C)n1c(/C=C/[C@H](O)C[C@H](O)CC(=O)O)c(-c2ccc(F)cc2)c2ccccc21`, the AC50 in test [5] was > 70 µM (inactive); in test [6], 5.95 µM (active); in test [7] it was 1.42 µM (active).

Consider `Cc1cc(C)n2nc(N)c(N=Nc3ccccc3)c2n1`, for which the EC50 in test [12] and in [13] was > 112 µM (not active) throughout. In the test “cells”, the concentration for half-maximal inhibition (IC50) was 5.78 µM (active).

With `COc1ccc(NC(=O)c2cc(Cl)ccc2Cl)c([N+](=O)[O-])c1`, the EC50 in test [2], in [3] and in test [4] was > 120 µM (not active) each time.

As to `CC1CCC(NC(=O)c2ccc(NC(=O)CC3SC(N4CCCC4)=NC3=O)cc2)CC1` (configuration not stated), the half-maximal inhibitory concentration (IC50) in test [9] was 14.5 µM (active).

Turning to `O=C(COc1ccccc1)Nc1nnc(-c2ccc(Cl)cc2)o1`, the concentration for half-maximal inhibition (IC50) in the test “cells” is 34.6 µM (active).

On to `O=C(Nc1ccc(S(=O)(=O)N2CCOCC2)cc1)c1ccc([N+](=O)[O-])cc1Cl`, for which the 50% effective concentration (EC50) in test [10] is 0.867 µM (active); in test [11], > 30 µM (not active). In addition, in [9], the IC50 is 15.1 µM (active).
